# Measurements reported in patent US20070185012A1, “Glycopeptides for the treatment of als and other metabolic and autoimmune disorders” (priority 2003, published 2007).
# Like-named read-outs stand apart in the source and are kept apart here.
# Assays:
# [1] = in vivo; cited from earlier work
# [2] = orally administered; Lyons et al 2000; cited from earlier work
# mice = conditions: cited from earlier work
# [3] = Bioavailability, nasal versus oral administration; conditions: administered via the nasal route, compared with oral
# ALS patients [4] = experiment: Case reports of single ALS patients treated with glycopeptide (Examples 1-6)
# ALS patients [5] = experiment: Twenty five ALS patients given aqueous intranasal spray of GMDP-A (Example 7); format: in vivo, human; conditions: 0.31 mg GMDP-A aqueous intranasal spray
# [6] = Example 2: after 5 months of GMDP then GMDP-A
# [7] = Example 5: GMDP-A intranasal spray 3 months
compound,measurement,setting,value
"CC(=O)NC1C(OC2C(CO)OC(O)C(NC(C)=O)C2OC(C)C(=O)NC(C)C(=O)NC(CCC(=O)O)C(N)=O)OC(CO)C(O)C1O [GMDP, N-acetyl-D-glucosaminyl-(β1-4)-N-acetylmuramyl-L-alanylD-isoglutamine]",pyrogenicity,[1],sufficiently low
same,bioavailability,[2],low bioavailability
same,LD50,mice; acute toxicity in mice,7000 mg/kg
same,bioavailability,[3],improved
same,voluntary motor function,"ALS patients [4]; Example 1: 3 months, semi-weekly aqueous oral spray of GMDP",Continued voluntary motor improvement
same,pulsox after removal of the oxygen,"ALS patients [4]; Example 1: 14 hours after first 6 mg GMDP dose, ambient air (82% before therapy), no respiratory distress",99%
same,speech,"ALS patients [4]; Example 1: after fourth day of 6 mg GMDP, first time in 18 months",began to speak soft-spoken words
same,voluntary movement,"ALS patients [4]; Example 1: day three, 6 mg GMDP aqueous oral spray",able to move all fingers on both hands excluding their thumbs
same,time until small fingers responded to voluntary challenge,"ALS patients [4]; Example 1: day two, additional 6 mg GMDP aqueous oral spray",≤ 2 h
same,pulsox,"ALS patients [4]; Example 1: person, final stage bulbar onset ALS, on pure oxygen (94% before), 6 mg GMDP aqueous oral spray plus 400 mg luteolin/400 mg rutin four times a day, within 24 hours",99%-100%
same,time of peak improvement of voice and energy,ALS patients [4]; Example 2: 10 mg GMDP aqueous oral spray,one
same,ALS progression,ALS patients [4]; [6],no progression
same,time to dramatic improvement of voice and energy,"ALS patients [4]; Example 2: person, bulbar onset ALS, on 2000 mg luteolin and 2000 mg rutin per day, 10 mg GMDP aqueous oral spray",≤ 40 min
same,time to substantial improvement in leg strength and fasciculations,"ALS patients [4]; Example 3: 1.51 mg GMDP intranasally per day, on luteolin/rutin",≤ 24 h
same,side effect,ALS patients [4]; Example 3: GMDP taken more frequently than every 96 hours,significant joint and muscle pain
same,walking distance without AFO,ALS patients [4]; Example 3: after 2 weeks of daily GMDP (before: not over 15 meters with AFO),up to 200 meters
N-acetyl-D-glucosaminyl-(β1-4)-N-acetylmuramyl-L-alanylD-glutamic acid [GMDP-A],time to reported symptom reduction and improvement,ALS patients [5],24 to 96 h
same,"patients reporting dramatic reductions in symptoms (fasciculations, muscle weakness, fatigue, choking)","ALS patients [5]; of twenty five ALS patients, 1-4 months",Twenty one
same,bioavailability,[3],improved
same,ALS progression,ALS patients [4]; [6],no progression
same,fasciculations,ALS patients [4]; Example 3: 0.93 mg GMDP-A every 96 hours,major reductions
same,ALS progression and symptoms,"ALS patients [4]; Example 3: 1.42 mg GMDP-A every 96 hours, after 4 months of therapy",abated all progression and symptoms of ALS
same,arm function,ALS patients [4]; Example 4: 0.942 mg intranasal spray daily,ability to comb their hair and feed themself was restored
same,reduction in fasciculations,"ALS patients [4]; Example 4: 0.942 mg intranasal spray daily, within 2 days",90%
same,ALS progression,ALS patients [4]; Example 4: for 4 months,No progression
same,disease progression,ALS patients [4]; [7],no progression of disease
same,mobility,ALS patients [4]; [7],ability to stand with support and walk with a walker
same,reduction in fasciculations,"ALS patients [4]; Example 5: GMDP-A intranasal spray 3 months, 1.24/0.93/0.62/0.31/0.31 mg days one to five, 6 day cycle",100%
same,ALS symptoms,"ALS patients [4]; Example 6: GMDP-A intranasal spray 1.42 mg every 96 hours, 3 months",cessation of their ALS symptoms
"CCCCCCCCCCCCCCCCCC(=O)NCCCC[C@H](NC(=O)CC[C@@H](NC(=O)[C@H](C)NC(=O)[C@@H](C)O[C@H]1[C@H](O)[C@@H](CO)OC(O)[C@@H]1NC(C)=O)C(N)=O)C(=O)O (stereo partly drawn) [muroctasin, reference compound]",LD50,mice; mice,625 mg/kg
